As a reminder, the IC50 is the concentration that gives 50% inhibition. High values mean a need for much substance, low ones inhibition by little substance.

For this experiment, the target named is Protein arginine N-methyltransferase 5 (Homo sapiens, UniProt O14744). Put plainly: Biochemical Assay : The 6 μL reactions are run in Greiner brand black 384-well low volume assay plates. All reactions contained assay buffer (phosphate buffered saline, 0.01% (v/v) Tween-20, 0.01% (w/v) albumin from chicken egg white, 1 mM Dithiothreitol, 1 μM peptide substrate, 1 μM S-Adenosyl methionine, and 15 ng/reaction enzyme, with the enzyme being omitted from negative control reactions. Compounds were added in a volume of 100 nL from dilution series prepared in DMSO, positive and negative control reactions receiving the same volume DMSO without compound. The plates were sealed with adhesive seals and incubated for 4 hours at 37 degree Celsius. Reaction progress was measured using the Transcreener EPIGEN methyltransferase assay (BellBrook Labs, Madison, Wis.) as recommended by the manufacturer. To each reaction 2 μL detection mix were added, containing coupling enzymes, fluorescence polarisation tracer, and AMP antibody. Plates were incubated for 90 minutes before being read on a PerkinElmer EnVision™ plate reader in fluorescence polarisation mode. (Fluorescence polarisation rises when a labelled molecule tumbles more slowly, as on binding a larger partner.)
Chain of Protein arginine N-methyltransferase 5 (O14744 whole entry): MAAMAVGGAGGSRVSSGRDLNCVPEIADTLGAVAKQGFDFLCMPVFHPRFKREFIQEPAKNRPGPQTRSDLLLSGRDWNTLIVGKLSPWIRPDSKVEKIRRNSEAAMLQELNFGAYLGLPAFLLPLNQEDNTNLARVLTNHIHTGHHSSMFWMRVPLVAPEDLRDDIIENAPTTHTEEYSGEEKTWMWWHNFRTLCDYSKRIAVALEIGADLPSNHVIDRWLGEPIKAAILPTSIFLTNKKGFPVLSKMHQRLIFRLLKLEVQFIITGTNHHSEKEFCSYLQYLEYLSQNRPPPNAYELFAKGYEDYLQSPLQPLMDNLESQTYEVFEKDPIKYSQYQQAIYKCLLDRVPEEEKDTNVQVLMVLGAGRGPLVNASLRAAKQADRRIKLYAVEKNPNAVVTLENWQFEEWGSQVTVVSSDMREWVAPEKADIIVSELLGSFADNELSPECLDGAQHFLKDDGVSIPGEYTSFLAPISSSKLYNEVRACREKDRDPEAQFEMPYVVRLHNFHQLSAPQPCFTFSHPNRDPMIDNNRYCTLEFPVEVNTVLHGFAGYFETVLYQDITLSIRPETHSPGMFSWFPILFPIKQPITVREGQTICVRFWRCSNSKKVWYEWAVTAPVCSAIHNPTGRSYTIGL

In the case of `CC(=O)N1CCC(Nc2nccc(C(=O)NC[C@@H](O)CNC3CC4C=CC=CC4C3)c2C)CC1` (stereo partly specified), the IC50 is 105 nM.

Source of the values: ChEMBL document CHEMBL5727909, “Pyridine derivatives and their use in the treatment of cancer and hemoglobinopathies” (2020).
